Test results reported in patent US12521371B2, “Modulators of alpha-synuclein” (KAINOS MEDICINE INC., priority 2017, dated 2026).

Experiments:
FAF1-Caspase 8 complex = biological target: T1, FAF1-Caspase 8 complex (Homo sapiens, UniProt Q9UNN5); assay: Immunoprecipitation assay of FAF1-Caspase 8 complex formation; assay type: biochemical
T1 construct: host or cells: cell extracts
T1 sequence (Q9UNN5 1-650): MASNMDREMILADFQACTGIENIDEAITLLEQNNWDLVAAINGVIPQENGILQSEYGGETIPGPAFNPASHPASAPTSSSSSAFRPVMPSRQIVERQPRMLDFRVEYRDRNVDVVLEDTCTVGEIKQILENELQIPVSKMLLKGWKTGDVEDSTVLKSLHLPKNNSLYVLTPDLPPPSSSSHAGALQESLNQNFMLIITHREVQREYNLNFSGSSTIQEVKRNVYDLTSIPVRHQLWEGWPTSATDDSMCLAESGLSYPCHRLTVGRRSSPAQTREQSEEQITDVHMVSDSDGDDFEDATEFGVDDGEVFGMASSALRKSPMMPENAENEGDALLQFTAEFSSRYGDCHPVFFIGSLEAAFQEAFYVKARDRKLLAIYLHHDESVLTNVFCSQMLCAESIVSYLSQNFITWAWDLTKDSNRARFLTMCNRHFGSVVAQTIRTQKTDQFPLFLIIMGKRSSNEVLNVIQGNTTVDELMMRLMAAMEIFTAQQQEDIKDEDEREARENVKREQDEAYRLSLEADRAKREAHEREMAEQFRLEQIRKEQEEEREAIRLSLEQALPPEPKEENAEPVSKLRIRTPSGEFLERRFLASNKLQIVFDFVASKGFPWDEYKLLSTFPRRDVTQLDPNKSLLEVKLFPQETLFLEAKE
Text: (§1) FAF1 activates apoptotic stress by various stimuli through activation of caspase cascade and necrosis as described (Yu C et al. 2016). The direct targets of FAF1 are caspase 8 and JNK in these two pathways, respectively. And the step of this activation is forming these complexes followed by activation of the downstream targets.
(§2) The inhibition of the complex formation of FAF1-Caspase 8 and FAF1-JNK by KM-819 is confirmed by the usual immunoprecipitation assays using a caspase8 DED antibody and a JNK antibody, and bound and precipitated FAF1 are measured by Western blot using anti-FAF1 antibody. Clearly, KM-819 inhibits the complex formation effectively, about 80% inhibition at 0.1 uM (FIG. 8).

FAF1-JNK complex = biological target: T2, FAF1-JNK complex (Homo sapiens, UniProt Q9UNN5); assay: Immunoprecipitation assay of FAF1-JNK complex formation; assay type: biochemical
T2 construct: host or cells: cell extracts
T2 sequence (Q9UNN5 1-650): T1 sequence (Q9UNN5 1-650)
Text: as §1, §2

Caspase 8 = Caspase 8 activation measured as Caspase 3 cleavage, Western blot; assay type: cell-based; details: cleavage of Caspase 3
Procedure: (§3) The inhibition of activation of Caspase 8 and JNK by KM-819 is confirmed by assaying the cleavage of the Caspase 8 substrate, Caspase 3, and autophosphorylation of JNK, respectively (FIG. 9). The cells are treated with different concentration of KM-819 as indicated and the levels of cleaved Caspase 3 and autophosphorylated form of JNK are measured by Western blot using anti-Caspase 3 antibody and anti-phospho-JNK antibody, respectively. Clearly, KM-819 inhibits the activity of Caspase 8 and JNK activation (FIG. 9).

JNK = JNK activation measured as JNK autophosphorylation, Western blot; assay type: cell-based; details: autophosphorylation of JNK
Procedure: as §3

LC3 and p62 = assay: Autophagy promotion: LC3 and p62 levels in SH-SY5Y cells overexpressing FAF1, Western blot; assay type: cell-based
Procedure: EC50 for autophagy promotion of KM-819 is 1 nM.

alpha-synuclein = assay: Alpha-synuclein level in SH-SY5Y cells co-transfected with FAF1-Flag and alpha-synuclein-GFP, Western blot; assay type: cell-based
Procedure: To confirm if FAF1 inhibitor decreases the alpha-synuclein level in cells, SH-SY5Y cells are treated with the FAF1 inhibitor KM-819 (KR-88493, U.S. Pat. No. 7,939,550, Yoo S E et al. 2016). Cells are co-transfected with genes encoding FAF1 tagged with Flag and alpha-synuclein tagged with GFP. The alpha-synuclein level is measured by Western blot of cell extracts using anti-GFP antibody. The FAF1 level is measured by Western blot of cell extracts using anti-Flag antibody. Clearly, the level of alpha-synuclein is decreased upon treatment with FAF1 inhibitor (FIG. 11). […] This is much higher efficacy compared to the apoptosis inhibition activity measured in the prior art, 70% inhibition at 10 uM. Note that FAF1 level itself is not changed by treatment with FAF1 inhibitor.

[1] = tested on: human alpha-synuclein mutant A53T; assay: Alpha-synuclein level in brain tissues of alpha-synuclein A53T transgenic mice after oral KM-819, Western blot; assay type: in vivo; details: oral 1, 5, 10 mg/kg/day for 9 days, A53T Tg mice
[2] = tested on: deoxy-glucose induced hypoxia-mediated apoptosis; details: at 10 uM; U.S. Pat. No. 7,939,550; cited from earlier work
FAF1 = FAF1 siRNA treatment of SH-SY5Y cells cotransfected with the alpha-synuclein gene, Western blot; assay type: cell-based
Text: FAF1 expression is attenuated by treating SH-SY5Y cells with siRNA (sequence: GUGUUGUGGCACAAACCAU) and reduction in FAF level is confirmed by Western blot of cell extracts using anti-FAF1 antibody. The cells are cotransfected with the alpha-synuclein gene. The level of alpha-synuclein is monitored by Western blot using anti-alpha-synuclein antibody. Clearly, the level of alpha-synuclein is decreased with FAF1 siRNA treatment (FIG. 5).

Q: Which inhibition at 0.1 µM (FAF1-Caspase 8 complex) does the source give for `O=C(CSc1ccc(Br)cc1)Nc1cn(CCc2ccccc2)nc1C(=O)O` [KM-819, 4-[2-(4-bromo-phenylsulfanyl)-acetylamino]-1-phenethyl-1H-pyrazole-3-carboxylic acid] here?
A: The inhibition at 0.1 µM was about 80%.

Q: What about the inhibition at 0.1 µM (FAF1-JNK complex) of the same compound?
A: Its inhibition at 0.1 µM is about 80%.

Q: And the IC50 (Caspase 8)?
A: The IC50 was 730 nM.

Q: What about the IC50 (JNK) of the same compound?
A: Its IC50 is 250 nM.

Q: What about the LC3 level (LC3 and p62) of the same compound?
A: The LC3 level was “increases”.

Q: And the p62 protein level (LC3 and p62)?
A: Its p62 protein level is “decreases”.

Q: What about the EC50 (LC3 and p62; Homo sapiens, read-out: EC50 for autophagy promotion (modulating LC-3 and p62 levels)) of the same compound?
A: The EC50 was 1 nM.

Q: And the EC50 (alpha-synuclein; Homo sapiens, SH-SY5Y, as stated in description b51, read-out: EC50 for decreasing the amount of alpha-synuclein in cells)?
A: Its EC50 is 20 nM.

Q: And the inhibition at 10 µM (alpha-synuclein; Homo sapiens, SH-SY5Y, at 10 uM)?
A: The inhibition at 10 µM was over 95%.

Q: And the IC50 (alpha-synuclein; Homo sapiens, SH-SY5Y cells, FAF1-Flag and alpha-synuclein-GFP, read-out: IC50 for decrease of alpha-synuclein level)?
A: Its IC50 is 20 nM.

Q: What about the FAF1 level (alpha-synuclein; SH-SY5Y cells, anti-Flag Western blot) of the same compound?
A: Its FAF1 level is “not changed”.

Q: What about the “FAF1 level in midbrain” value [1] of the same compound?
A: The value was “not changed”.

Q: What about the “level of S129 phosphorylated alpha-synuclein in midbrain” value [1] of the same compound?
A: Its value is “decreased”.

Q: What about the “level of alpha-synuclein in cerebellum” value [1] of the same compound?
A: Its value is “decreased”.

Q: What about the “level of alpha-synuclein in cortex” value [1] of the same compound?
A: Its value is “decreased”.

Q: What about the “level of alpha-synuclein in hippocampus” value [1] of the same compound?
A: The value was “decreased”.

Q: What about the “level of alpha-synuclein in midbrain” value [1] of the same compound?
A: The value was “decreased”.

Q: And the “level of alpha-synuclein in striatum” value [1]?
A: The value was “decreased”.

Q: What about the inhibition of apoptosis [2] of the same compound?
A: Its inhibition of apoptosis is 70%.

Q: What does the source list for “FAF1 siRNA: siRNA (sequence: GUGUUGUGGCACAAACCAU) that attenuates FAF1 expression in SH-SY5Y cells (chemistry not given here)”?
A: level of alpha-synuclein (FAF1; SH-SY5Y cells cotransfected with alpha-synuclein gene): decreased; FAF1 expression (FAF1; SH-SY5Y cells, anti-FAF1 Western blot): attenuated
